Measurements taken from patent US5260321A, “Use of 1,4-dihydropyridine derivatives and combinations thereof with calcitonins” (priority 1984, dated 1993).

Assays:
Assay type in all cases: in vivo
[1] = tested on: neointimal lesion development in the rat carotid artery; assay: Inhibition of neointimal lesion development in the rat carotid artery (balloon catheterization test); conditions: for Maximal intimal height: mean ± SD
Experimental: The anti-atherogenic activity has been confirmed also by measurement of the inhibition of neointimal lesion development in the rat carotid artery (balloon catheterization test, essentially as published in A. W. Clowes et al., Lab. Invest. 49 [1983]208-215).
In a first experiment a group of 12 rats was given PN 250 μg/kg/day in 10% ethanol-water s.c. A control group of 9 animals was non-injected and a further control group of 7 animals was vehicle-injected. Animals were randomized into 3 groups for catheterization and were weighed every other day throughout the study. Rats were anesthetized with ether inhalation. The […] region was shaved and the external branch of the left common carotid artery was isolated by an incision from the lower mandible to the clavicle, followed by retracting the submaxillary gland (lateral) and several muscle bundles including the sternohyoideus (medial), sternomastoideus (lateral) and digastricus posterior belly (lateral). […] Lidocaine was applied to vasodilate during catheter introduction. Following an incision with iris scissors, a Fogarty arterial embolectomy catheter (No. 2F) was inserted into the external branch of the carotid, passed into the aortic arch and slightly withdrawn to assure inflation of the catheter within the common carotid artery. The catheter was inflated using approximately 900 mmHg air pressure, drawn distally and deflated. This was repeated three times to assure complete de-endothelialization of the common carotid. The catheter was removed, the artery ligated and the incision closed. Under these conditions the carotid is completely de-endothelialized.
Animals were sacrificed 14 days after ballooning in the same sequence as the catheterization. Thirty minutes before fixation the animals were injected with a 2.25% Evan's Blue dye solution (1.5 mg/kg iv) to differentiate between the neointimal and re-endothelialized areas. Areas of the carotid that have endothelial regrowth exclude the dye and appear white. The remaining areas that lack endothelium are stained blue. Whole body (beating heart) perfusion fixations (90-110 mmHg) were then performed on anesthetized (sodium pentobarbital, 50.0 mg/kg ip) animals using 200 ml of 1% glutaraldehyde in 0.15M sodium cacodylate buffer (pH 7.4, 37° C., 410 mOsm) followed by 400 ml of 3% glutaraldehyde in 0.15M sodium cacodylate. The entry site of the fixative was a puncture in the left ventricle, with efflux collected by vacuum suction from the right atrium. The thoracic aorta flow was restricted to optimize carotid perfusion. Successful fixation was judged by upper body rigidity and an absence of blood from the large arteries.
In a second experiment the procedure as described above was followed, with groups consisting of non-injected controls (n=8), animals treated with PY (n=5) or PN (n=8). Animals received drug for 2 days before catheterization and to the conclusion of the study (14 days). PY and PN were given at 1.0 mg/kg in 10% EtOH-water s.c. All animals (controls and drug-treated) were randomized into 3 groups for catheterization.
After each experiment the fixed carotid was removed and cut into 3 segments (distal, central, proximal). Tissue processing of only the central segment included 18 hours in 3% buffered glutaraldehyde, buffer rinsing, dehydration in an ascending ethanol series and infiltration with Spurr's resin. The samples were embedded with cross-sectional orientation so that sectioning (0.5 μm) would include blue areas which have not re-endothelialized and show continued proliferative responses. A two-step polychromatic stain utilizing toluidine blue and 1.0% basic fuchsin rendered histological differentiation to nuclear, cytoplasmic and extracellular connective matrix components.
All light microscopic histology slides were randomized, encoded and evaluated utilizing a Zeiss standard microscope and the Videoplan computerized image analyzer. Vessel measurements included maximum lesion height. […]

total calcium = assay: Rabbit intravenous experiment repeated, total calcium measured photometrically; conditions: intravenous infusion, photometric
Experimental: (§1) The effect of the compounds of the invention in lowering calcium levels is indicated in any standard animal test for hypercalcemic activity. In one test the compound is administered to rabbits (e.g. ca. 1 kg in weight) either as a suspension e.g. 0.1 to 5 mg (e.g. 0, 1 mg) per ml of solution (i.e. blood plasma with ca. 1-5% alcohol) and 0.1-5 mg/kg animal body weight by intravenous infusion (0.5 ml per hour) or orally e.g. 1 to 5 mg/kg animal body weight as a suspension in distilled water. A significant lowering of calcium ions is observed using standard measuring techniques for calcium ions in the blood, e.g. using a calcium ion selective electrode, or by photometric methods.
The intravenous experiment is repeated measuring total calcium photometrically. Drop in calcium levels over 11/2 hours=23%, over 21/2 hours=30%.

[2] = tested on: ionized calcium concentration in the blood; assay: Rabbit test: ionized calcium in blood by calcium ion selective electrode; conditions: PN alone
Experimental: as §1
One method for measuring calcium ion concentrations is as follows: […]
The concentration of ionized calcium in the blood is measured potentiometrically as follows: The difference in potential between the reference electrode and the Ca^2+ -selective electrode is measured differentially relative to the common electrode. The difference is amplified and the analogue signal produced by the amplifier is processed by a digital voltmeter and continuously recorded as a function of time, the difference in voltage being proportional to the Ca^2+ concentration. […]

[3] = Expt. 2, 1.0 mg/kg s.c. from 2 days before catheterization to day 14, controls 72.4 ± 17.4

## COC(=O)C1=C(C)NC(C)=C(C(=O)OC(C)C)C1c1cccc2nonc12 (centres unmarked) [PN, 4-(2,1,3-benzoxadiazol-4yl)-1,4-dihydro-2,6-dimethyl-3-methoxycarbonyl-pyridine-5-carboxylic acid isopropyl ester]
[1]; Expt. 1, 0.25 mg/kg/d
  Inhibition of lesion development: 26%
[1]; Expt. 1, 0.25 mg/kg/day s.c., 14 days after ballooning, controls 84.9 ± 21.3
  Maximal intimal height: 63.2 ± 19.9 μm
[1]; [3]
  Maximal intimal height: 38.9 ± 22.0 μm
[1]; Expt. 2, 1.0 mg/kg/d
  Inhibition of lesion development: 46%
Total calcium; over 11/2 hours
  Drop in calcium levels (total calcium): 23%
Total calcium; over 21/2 hours
  Drop in calcium levels (total calcium): 30%
[2]; intravenous infusion, 0.5 mg/0.5/over 1 hour
  Lowering of ionized calcium: 10-20%
[2]; oral 1 mg/kg
  Lowering of ionized calcium: 5-10%

## CCOC(=O)C1=C(C)NC(C)=C(C(=O)OCC)C1c1cccc2nonc12 [PY, 4-(2,1,3-benzoxadiazol-4-yl)-1,4-dihydro-2,6-dimethylpyridine-3,5-dicarboxylic acid diethyl ester]
[1]; [3]
  Maximal intimal height: 58.6 ± 18.1 μm
[1]; Expt. 2, 1.0 mg/kg/d
  Inhibition of lesion development: 19%
[1]; rats, s.c., all doses used (0.25 and 1.0 mg/kg)
  Tolerability: tolerated at all doses used
